Experiments:
3′ UTR of the TNFα gene = test: cell-based luciferase reporter assay, 5B cell line (luciferase gene with entire 3′ UTR of the TNFα gene); parameters: species or system mouse; conditions: for Luciferase 5B (% of DMSO control): 1 h, then LPS, 5B cell line
Experimental: The candidate compounds were tested in a high-throughput, cell-based luciferase reporter assay. For this assay, a commercially available mouse macrophage Raw 264.7 cell line was stably transfected with a construct containing the CMV promoter operably linked to the luciferase gene which was modified using standard molecular biology techniques to contain the entire 3′ UTR of the TNFα gene. This 3′ UTR is important for the stability and translation of TNFα in cells. To control for effects of candidate compounds that are not specific for TNFα, a control cell line, called “3B,” was generated by stably transfecting the 264.7 cell line with a commercially available construct containing the luciferase gene (without the addition of the heterologous 3′ UTR of the TNFα gene) under the regulation of the CMV promoter.
[…] Then, lipopolysaccharide (LPS) was added to stimulate TNFα secretion. Luciferase activity was measured by determining the luminescence intensity due to the reaction of lucifern, ATP, Mg^2+, and molecular O2 (see, for example, Ausubel et al., supra). The luciferase activity in a cell incubated with a candidate compound was reported as a percentage of the luciferase activity for the corresponding cell incubated with DMSO vehicle only.
After correction for any effect caused by the administration of the DMSO only vehicle control, the effect of a candidate compound on luciferase activity in the 3B control cell line represents the global effect of the compound on any step required for expression or activity of luciferase protein, such as luciferase gene transcription, mRNA processing, mRNA stability, translation, protein stability, or enzymatic activity. […] In this case, the luciferase activity in the 5B cell line treated with the DMSO vehicle control is similar to the luciferase activity in the control 3B cell line treated with the candidate compound. Thus, the response of the 5B cell line (as a percent of the DMSO control) and the ratio of the luciferase activity in the 5B cell line (as a percent of the DMSO control) to the luciferase activity in the control 3B cell line (as a percent of the DMSO control) are similar. In desirable embodiments, the response of the 5B cell line and the 5B/3B ratio differ by less than 50, 40, 30, 20, 10, or 5%.

TNFα = test: ELISA of TNFα secreted into the media after LPS; format: cell-based; conditions: 10 μM compound, 1 h, then LPS
Experimental: The ability of candidate compounds to reduce the amount of secreted TNFα was also directly tested using an ELISA assay. […] A standard ELISA analysis was used to measure the amount of TNFα secreted into the media (see, for example, Ausubel et al., supra). The effect of a candidate compound on TNFα secretion in this assay is reported in the following tables as a percentage of the amount of TNFα secreted by a control cell that was administered a DMSO vehicle control only.

[1] = 10 μM compound, ratio of 5B to control 3B cell line

Row | SMILES | effect on luciferase activity in the 5B cell line (luciferase assay), in words (3′ UTR of the TNFα gene) | Luciferase 5B (% of DMSO control) (3′ UTR of the TNFα gene; 10 μM compound) | Luciferase 5B/3B (% of DMSO control 5B)/(% of DMSO control 3B) (3′ UTR of the TNFα gene; [1]) | TNFα Secretion (% of DMSO control) (TNFα) | Luciferase 5B/3B (% of DMSO control 5B)/(% of DMSO control 3B) (3′ UTR of the TNFα gene; 10 μM compound (Table 11))
1 | CCCCC(NC(=O)c1cccc(C(C)=NNC(=N)N)c1)C(=O)N1CCN(C(=O)C(Cc2ccccc2)NC(=O)c2ccc(C(=NNC(=N)N)c3ccccc3)cc2)CC1 (mixture of isomers) [MES 10185] | inhibited TNFα secretion | 31 % of DMSO control | 35 (% of DMSO control 5B)/(% of DMSO control 3B) | 37 % of DMSO control | –
2 | CC(C)CC(NC(=O)c1ccc(C(=NNC(=N)N)c2ccccc2)cc1)C(=O)N1CCN(C(=O)C(Cc2cccc3ccccc23)NC(=O)c2ccc(C(=NNC(=N)N)c3ccccc3)cc2)CC1 (mixture of isomers) [MES 10191] | – | 46 % of DMSO control | 86 (% of DMSO control 5B)/(% of DMSO control 3B) | 22 % of DMSO control | –
3 | CC(C)CC(NC(=O)c1ccc(C(=NNC(=N)N)c2ccccc2)cc1)C(=O)N1CCN(C(=O)C(Cc2ccc(Cl)cc2)NC(=O)c2ccc(C(=NNC(=N)N)c3ccccc3)cc2)CC1 (mixture of isomers) [MES 10192] | – | 37 % of DMSO control | 47 (% of DMSO control 5B)/(% of DMSO control 3B) | 17 % of DMSO control | –
4 | CC(C)CC(NC(=O)c1ccc(C(=NNC(=N)N)c2ccccc2)cc1)C(=O)N1CCN(C(=O)C(Cc2ccc(-c3ccccc3)cc2)NC(=O)c2ccc(C(=NNC(=N)N)c3ccccc3)cc2)CC1 (mixture of isomers) [MES 10193] | – | 23 % of DMSO control | 38 (% of DMSO control 5B)/(% of DMSO control 3B) | 20 % of DMSO control | –
5 | CC(=NN=C(N)N)c1cccc(C(=O)NC(CC(C)C)C(=O)NCCCNC(=O)C(C)NC(=O)c2ccc(C(=NN=C(N)N)c3ccccc3)cc2)c1 (mixture of isomers) [MES 11411] | decrease TNFα secretion | 65 % of DMSO control | 71 (% of DMSO control 5B)/(% of D | – | –
6 | CC(=NNC(=N)N)c1cccc(C(=O)NC(C)C(=O)N2CCN(C(=O)C(Cc3ccccc3)NC(=O)c3ccc(C(=NNC(=N)N)c4ccccc4)cc3)CC2)c1 (mixture of isomers) [MES 11465] | decrease TNFα secretion | 72 % of DMSO control | 71 (% of DMSO control 5B)/(% of D | – | –
7 | C/C(=N\N=C(N)N)c1cccc(C(=O)NCCNC(=O)[C@H](Cc2ccccc2)NC(=O)c2ccc(C(=O)c3ccccc3)cc2)c1.O=C(O)C(F)(F)F [MES 10093, (4-E)-Guanylhydrazone of 1-[(S)-N-(4-benzoylbenzoyl)-2-amino-3-phenylpropanoyl]-4-(3-acetylbenzoyl)-1,4-diazabutane trifluoroacetate] | – | – | – | – | 47 (% of DMSO control 5B)/(% of D
8 | O=C(N[C@@H](Cc1ccccc1)C(=O)N1CCN(C(=O)CCCC(=O)N2CCN(c3ccccc3)CC2)CC1)c1ccc(C(=O)c2ccccc2)cc1 [MES 10246] | – | 46 % of DMSO control | 74 (% of DMSO control 5B)/(% of D | – | –
9 | CN1CCN(C(=O)CCC(=O)N2CCN(C(=O)[C@H](Cc3ccccc3)NC(=O)c3ccc(C(=O)c4ccccc4)cc3)CC2)CC1 [MES 10301] | – | 76 % of DMSO control | 105 (% of DMSO control 5B)/(% of D | – | –
10 | CC(NC(=O)c1ccc(C(=O)c2ccccc2)cc1)C(=O)N1CCN(C(=O)CCC(=O)N2CCN(c3ccccc3)CC2)CC1 (stereo not shown) [MES 10304] | – | 49 % of DMSO control | 64 (% of DMSO control 5B)/(% of D | – | –
11 | CC(=O)N[C@@H](Cc1ccccc1)C(=O)N1CCN(C(=O)[C@H](CC(C)C)NC(=O)c2cccc(/C(C)=N/NC(=N)N)c2)CC1 [MES 10306] | – | 85 % of DMSO control | 125 (% of DMSO control 5B)/(% of D | – | –

From patent US6872850B2, “Small molecule inhibitors of secretion of proteins encoded by ARE-mRNAs” (Message Pharmaceuticals, priority 2001, dated 2005)
